# Reference: ChEMBL document CHEMBL4339212, “Novel 7-formyl-naphthyridyl-ureas derivatives as potential selective FGFR4 inhibitors: Design, synthesis, and biological activity studies” (Bioorg Med Chem, 2019)
# How the values were obtained:
# [1] = biological target: ALK tyrosine kinase receptor (Homo sapiens, UniProt Q9UM73); test: Inhibition of ALK (unknown origin)
# [2] = biological target: Platelet-derived growth factor receptor alpha (Homo sapiens, UniProt P16234); test: Inhibition of PDGFRalpha (unknown origin)
# SK-HEP1 = test: Antiproliferative activity against human SKHEP1 cells without FGFR4 gene amplification assessed as inhibition of cell proliferation incubated for 72 hrs by CellTiter-Glo method; assay type: functional, cell-based; conditions: SK-HEP1, 72 h
# [3] = biological target: Hepatocyte growth factor receptor (Homo sapiens, UniProt P08581); test: Inhibition of MET (unknown origin)
# Hep 3B2 [4] = test: Antitumor activity against human Hep3B cells xenografted in nude BALB/c mouse assessed as inhibition of tumor growth at 3 mg/kg bid for 14 days and measured twice per week relative to untreated control; assay type: functional; conditions: 336 h, read-out: TGI
# [5] = biological target: Tyrosine-protein kinase JAK1 (Homo sapiens, UniProt P23458); test: Inhibition of JAK1 (unknown origin)
# Focal adhesion kinase 1 = Focal adhesion kinase 1 (Homo sapiens, UniProt Q05397); test: Inhibition of FAK (unknown origin)
# [6] = Toxicity in female BALB/c mouse assessed as effect on body weight at 50 to 450 mg/kg/day, ig dosed once daily for 4 weeks followed by rehabilitation for another 28 days; assay type: organism-based; conditions: in vivo, po, 672 h
# Insulin receptor = Insulin receptor (Homo sapiens, UniProt P06213); test: Inhibition of INSR (unknown origin)
# Hep 3B2 [7] = test: Antitumor activity against human Hep3B cells xenografted in nude BALB/c mouse assessed as inhibition of tumor growth at 30 mg/kg bid for 14 days and measured twice per week relative to untreated control; assay type: functional; conditions: 336 h, read-out: TGI
# [8] = Toxicity in female BALB/c mouse assessed as induction of animal death at 450 mg/kg/day, ig dosed once daily for 4 weeks followed by rehabilitation for another 28 days; assay type: organism-based; conditions: in vivo, po, 672 h
# Huh-7 [9] = test: Antitumor activity against human HuH7 cells xenografted in nude BALB/c mouse assessed as inhibition of tumor growth at 100 mg/kg bid for 14 days and measured twice per week relative to untreated control; assay type: functional; conditions: Huh-7, 336 h, read-out: TGI
# [10] = biological target: Mast/stem cell growth factor receptor Kit (Homo sapiens, UniProt P10721); test: Inhibition of C-KIT (unknown origin)
# [11] = biological target: Receptor tyrosine-protein kinase erbB-4 (Homo sapiens, UniProt Q15303); test: Inhibition of HER4 (unknown origin)
# [12] = biological target: Tyrosine-protein kinase SYK (Homo sapiens, UniProt P43405); test: Inhibition of SYK (unknown origin)
# Huh-7 [13] = test: Antitumor activity against human HuH7 cells xenografted in nude BALB/c mouse assessed as inhibition of tumor growth at 10 mg/kg bid for 14 days and measured twice per week relative to untreated control; assay type: functional; conditions: Huh-7, 336 h, read-out: TGI
# [14] = biological target: Receptor tyrosine-protein kinase erbB-2 (Homo sapiens, UniProt P04626); test: Inhibition of HER2 (unknown origin)
# [15] = biological target: Tyrosine-protein kinase JAK2 (Homo sapiens, UniProt O60674); test: Inhibition of JAK2 (unknown origin)
# [16] = biological target: Fibroblast growth factor receptor 3 (Homo sapiens, UniProt P22607); test: Inhibition of FGFR3 (unknown origin)
# [17] = biological target: Epidermal growth factor receptor (Homo sapiens, UniProt P00533); test: Inhibition of EGFR (unknown origin)
# [18] = biological target: Platelet-derived growth factor receptor beta (Homo sapiens, UniProt P09619); test: Inhibition of PDGFRbeta (unknown origin)
# Ephrin type-A receptor 1 = Ephrin type-A receptor 1 (Homo sapiens, UniProt P21709); test: Inhibition of EphA1 (unknown origin)
# [19] = biological target: Fibroblast growth factor receptor 1 (Homo sapiens, UniProt P11362); test: Inhibition of FGFR1 (unknown origin) incubated for 60 mins by caliper microfluidic mobility shift technology based assay
# Angiopoietin-1 receptor = Angiopoietin-1 receptor (Homo sapiens, UniProt Q02763); test: Inhibition of TIE2 (unknown origin)
# [20] = biological target: Muscle, skeletal receptor tyrosine-protein kinase (Homo sapiens, UniProt O15146); test: Inhibition of MUSK (unknown origin)
# [21] = Toxicity in female BALB/c mouse assessed as effect on clinical pathology parameters at 200 to 2000 mg/kg, ig administered as single dose measured after 14 days; assay type: organism-based; conditions: in vivo, po, 336 h
# [22] = Toxicity in female BALB/c mouse at 200 to 2000 mg/kg, ig administered as single dose measured after 14 days; assay type: organism-based; conditions: in vivo, po
# [23] = biological target: Proto-oncogene tyrosine-protein kinase ROS (Homo sapiens, UniProt P08922); test: Inhibition of ROS (unknown origin)
# Ephrin type-B receptor 1 = Ephrin type-B receptor 1 (Homo sapiens, UniProt P54762); test: Inhibition of EphB1 (unknown origin)
# [24] = Toxicity in male BALB/c mouse at 50 to 450 mg/kg/day, ig dosed once daily for 4 weeks followed by rehabilitation for another 28 days; assay type: organism-based; conditions: in vivo, po
# [25] = biological target: Tyrosine-protein kinase JAK3 (Homo sapiens, UniProt P52333); test: Inhibition of JAK3 (unknown origin)
# [26] = biological target: MAP kinase-activated protein kinase 2 (Homo sapiens, UniProt P49137); test: Inhibition of MAPKAPK2 (unknown origin)
# [27] = biological target: Vascular endothelial growth factor receptor 1 (Homo sapiens, UniProt P17948); test: Inhibition of FLT1 (unknown origin)
# Hep 3B2 [28] = test: Antitumor activity against human Hep3B cells xenografted in nude BALB/c mouse assessed as inhibition of tumor growth at 10 mg/kg bid for 14 days and measured twice per week relative to untreated control; assay type: functional; conditions: 336 h, read-out: TGI
# [29] = Toxicity in male BALB/c mouse assessed as induction of animal death at 450 mg/kg/day, ig dosed once daily for 4 weeks followed by rehabilitation for another 28 days; assay type: organism-based; conditions: in vivo, po, 672 h
# Huh-7 [30] = test: Antitumor activity against human HuH7 cells xenografted in nude BALB/c mouse assessed as inhibition of tumor growth at 30 mg/kg bid for 14 days and measured twice per week relative to untreated control; assay type: functional; conditions: Huh-7, 336 h, read-out: TGI
# [31] = biological target: Proto-oncogene tyrosine-protein kinase receptor Ret (Homo sapiens, UniProt P07949); test: Inhibition of RET (unknown origin)
# Hep 3B2 [32] = test: cells; conditions: Homo sapiens, Hep3B, 72 h
# [33] = biological target: High affinity nerve growth factor receptor (Homo sapiens, UniProt P04629); test: Inhibition of TRKA (unknown origin)
# Huh-7 [34] = test: cells; conditions: Homo sapiens, Huh-7, 72 h
# [35] = biological target: MAP kinase-activated protein kinase 3 (Homo sapiens, UniProt Q16644); test: Inhibition of MAPKAPK3 (unknown origin)
# [36] = biological target: Receptor-type tyrosine-protein kinase FLT3 (Homo sapiens, UniProt P36888); test: Inhibition of FLT3 (unknown origin)
# [37] = AUC in Sprague-Dawley rat at 5 mg/kg, ig measured after 5 mins to 24 hrs by LC-MS analysis; assay type: ADME, organism-based; set-up: dose 5 mg/kg, time 0.083-24 hr, route […]; conditions: in vivo, po
# [38] = biological target: Tyrosine-protein kinase ZAP-70 (Homo sapiens, UniProt P43403); test: Inhibition of ZAP70 (unknown origin)
# Sequence of Tyrosine-protein kinase ZAP-70 (P43403 whole entry): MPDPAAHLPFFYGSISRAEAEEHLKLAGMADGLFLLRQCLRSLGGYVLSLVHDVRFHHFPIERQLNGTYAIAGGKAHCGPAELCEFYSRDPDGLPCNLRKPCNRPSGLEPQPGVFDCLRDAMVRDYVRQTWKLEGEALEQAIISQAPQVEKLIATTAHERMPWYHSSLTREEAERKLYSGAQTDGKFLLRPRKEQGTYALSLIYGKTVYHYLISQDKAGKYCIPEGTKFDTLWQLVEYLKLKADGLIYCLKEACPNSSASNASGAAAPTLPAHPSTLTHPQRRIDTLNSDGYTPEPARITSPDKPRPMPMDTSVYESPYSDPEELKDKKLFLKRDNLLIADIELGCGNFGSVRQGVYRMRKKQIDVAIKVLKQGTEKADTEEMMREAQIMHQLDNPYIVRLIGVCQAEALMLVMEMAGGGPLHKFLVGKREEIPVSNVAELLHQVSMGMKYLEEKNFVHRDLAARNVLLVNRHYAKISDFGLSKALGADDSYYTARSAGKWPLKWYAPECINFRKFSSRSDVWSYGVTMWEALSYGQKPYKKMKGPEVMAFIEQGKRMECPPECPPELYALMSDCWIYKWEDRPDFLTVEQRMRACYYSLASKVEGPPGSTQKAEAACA
# Sequence of Mast/stem cell growth factor receptor Kit (P10721 whole entry): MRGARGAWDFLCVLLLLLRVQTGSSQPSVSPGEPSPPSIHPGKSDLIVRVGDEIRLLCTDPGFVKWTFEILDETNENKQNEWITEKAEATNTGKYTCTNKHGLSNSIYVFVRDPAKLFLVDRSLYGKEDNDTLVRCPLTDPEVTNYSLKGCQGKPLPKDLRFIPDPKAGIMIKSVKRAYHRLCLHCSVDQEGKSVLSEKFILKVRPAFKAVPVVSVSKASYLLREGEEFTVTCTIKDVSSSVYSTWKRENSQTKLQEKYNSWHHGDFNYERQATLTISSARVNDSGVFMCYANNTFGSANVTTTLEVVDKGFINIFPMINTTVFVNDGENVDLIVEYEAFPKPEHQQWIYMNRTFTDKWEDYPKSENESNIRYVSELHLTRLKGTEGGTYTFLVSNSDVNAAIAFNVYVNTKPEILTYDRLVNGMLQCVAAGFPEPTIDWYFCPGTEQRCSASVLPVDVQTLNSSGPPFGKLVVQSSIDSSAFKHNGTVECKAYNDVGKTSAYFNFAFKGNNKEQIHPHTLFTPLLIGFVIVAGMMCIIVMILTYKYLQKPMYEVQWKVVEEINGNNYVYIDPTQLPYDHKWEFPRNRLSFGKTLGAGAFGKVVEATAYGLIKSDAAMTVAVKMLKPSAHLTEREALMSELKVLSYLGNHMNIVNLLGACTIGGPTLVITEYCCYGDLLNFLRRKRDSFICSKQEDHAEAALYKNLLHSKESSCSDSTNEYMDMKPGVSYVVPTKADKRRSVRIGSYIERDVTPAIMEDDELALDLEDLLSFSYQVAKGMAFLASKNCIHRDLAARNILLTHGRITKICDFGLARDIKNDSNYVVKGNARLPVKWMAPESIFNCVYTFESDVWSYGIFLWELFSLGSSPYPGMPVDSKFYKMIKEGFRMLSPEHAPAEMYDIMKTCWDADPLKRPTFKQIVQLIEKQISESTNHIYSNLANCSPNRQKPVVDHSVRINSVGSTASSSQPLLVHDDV
# Sequence of Vascular endothelial growth factor receptor 1 (P17948 whole entry): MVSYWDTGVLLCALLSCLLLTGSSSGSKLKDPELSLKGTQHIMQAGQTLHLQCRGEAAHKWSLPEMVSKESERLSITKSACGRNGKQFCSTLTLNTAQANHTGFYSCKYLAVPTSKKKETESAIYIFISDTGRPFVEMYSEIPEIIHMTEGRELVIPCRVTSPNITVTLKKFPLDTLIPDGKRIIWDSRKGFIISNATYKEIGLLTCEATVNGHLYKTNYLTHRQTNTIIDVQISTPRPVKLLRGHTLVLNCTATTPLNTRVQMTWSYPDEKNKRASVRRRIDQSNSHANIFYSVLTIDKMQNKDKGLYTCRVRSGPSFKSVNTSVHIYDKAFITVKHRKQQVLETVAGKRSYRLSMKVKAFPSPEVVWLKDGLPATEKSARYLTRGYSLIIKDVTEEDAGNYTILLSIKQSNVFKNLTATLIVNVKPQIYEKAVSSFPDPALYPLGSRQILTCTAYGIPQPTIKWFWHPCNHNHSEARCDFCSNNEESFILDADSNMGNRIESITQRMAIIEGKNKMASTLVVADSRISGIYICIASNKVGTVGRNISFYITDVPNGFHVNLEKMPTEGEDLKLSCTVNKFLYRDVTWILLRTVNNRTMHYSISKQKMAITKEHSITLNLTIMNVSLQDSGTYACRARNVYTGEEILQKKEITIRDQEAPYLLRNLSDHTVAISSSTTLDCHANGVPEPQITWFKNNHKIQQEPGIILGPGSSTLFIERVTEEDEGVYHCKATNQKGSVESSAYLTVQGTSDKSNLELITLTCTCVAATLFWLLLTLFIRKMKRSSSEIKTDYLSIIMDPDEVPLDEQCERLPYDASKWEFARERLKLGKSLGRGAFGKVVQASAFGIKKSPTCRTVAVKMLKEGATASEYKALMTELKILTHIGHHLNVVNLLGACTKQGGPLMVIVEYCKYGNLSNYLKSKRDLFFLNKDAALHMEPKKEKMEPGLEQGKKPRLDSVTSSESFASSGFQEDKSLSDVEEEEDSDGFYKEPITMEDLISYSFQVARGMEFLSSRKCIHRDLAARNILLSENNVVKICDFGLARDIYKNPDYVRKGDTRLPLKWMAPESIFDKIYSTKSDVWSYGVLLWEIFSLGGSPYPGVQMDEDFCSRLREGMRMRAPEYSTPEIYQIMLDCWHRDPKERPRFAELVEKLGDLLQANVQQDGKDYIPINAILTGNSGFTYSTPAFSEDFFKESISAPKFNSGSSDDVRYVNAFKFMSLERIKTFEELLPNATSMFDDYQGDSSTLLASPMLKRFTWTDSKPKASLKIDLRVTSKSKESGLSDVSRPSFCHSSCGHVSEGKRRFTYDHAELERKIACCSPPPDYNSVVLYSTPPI
# Sequence of Angiopoietin-1 receptor (Q02763 whole entry): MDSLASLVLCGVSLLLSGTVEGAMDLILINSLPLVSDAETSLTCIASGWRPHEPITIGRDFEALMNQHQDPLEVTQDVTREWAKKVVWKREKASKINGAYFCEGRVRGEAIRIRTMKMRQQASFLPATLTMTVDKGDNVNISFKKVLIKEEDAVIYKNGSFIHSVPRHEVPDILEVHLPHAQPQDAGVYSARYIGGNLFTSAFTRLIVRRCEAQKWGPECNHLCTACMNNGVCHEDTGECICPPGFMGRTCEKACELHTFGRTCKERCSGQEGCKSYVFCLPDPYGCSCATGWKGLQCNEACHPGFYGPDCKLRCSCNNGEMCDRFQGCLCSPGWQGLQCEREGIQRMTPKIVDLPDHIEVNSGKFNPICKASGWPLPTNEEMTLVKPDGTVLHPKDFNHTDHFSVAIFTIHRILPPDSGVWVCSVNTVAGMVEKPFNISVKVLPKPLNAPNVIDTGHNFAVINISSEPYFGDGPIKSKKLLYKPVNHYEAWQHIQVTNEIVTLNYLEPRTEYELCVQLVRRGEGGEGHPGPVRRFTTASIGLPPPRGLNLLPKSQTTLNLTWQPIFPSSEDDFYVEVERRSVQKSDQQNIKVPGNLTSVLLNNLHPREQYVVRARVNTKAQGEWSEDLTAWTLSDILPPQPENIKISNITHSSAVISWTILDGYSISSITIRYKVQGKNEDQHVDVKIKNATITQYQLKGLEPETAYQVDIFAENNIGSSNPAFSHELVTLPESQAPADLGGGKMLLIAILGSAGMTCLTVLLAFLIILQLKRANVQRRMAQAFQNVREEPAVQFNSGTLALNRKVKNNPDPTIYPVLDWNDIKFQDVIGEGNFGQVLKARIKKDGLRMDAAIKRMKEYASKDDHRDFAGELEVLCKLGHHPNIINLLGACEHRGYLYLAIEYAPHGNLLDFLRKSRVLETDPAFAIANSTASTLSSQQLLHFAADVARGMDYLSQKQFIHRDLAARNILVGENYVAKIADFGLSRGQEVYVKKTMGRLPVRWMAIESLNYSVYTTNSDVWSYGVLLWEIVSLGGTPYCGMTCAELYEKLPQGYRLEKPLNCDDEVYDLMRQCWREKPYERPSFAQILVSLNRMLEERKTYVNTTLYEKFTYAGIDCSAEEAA
# Sequence of Ephrin type-B receptor 1 (P54762 whole entry): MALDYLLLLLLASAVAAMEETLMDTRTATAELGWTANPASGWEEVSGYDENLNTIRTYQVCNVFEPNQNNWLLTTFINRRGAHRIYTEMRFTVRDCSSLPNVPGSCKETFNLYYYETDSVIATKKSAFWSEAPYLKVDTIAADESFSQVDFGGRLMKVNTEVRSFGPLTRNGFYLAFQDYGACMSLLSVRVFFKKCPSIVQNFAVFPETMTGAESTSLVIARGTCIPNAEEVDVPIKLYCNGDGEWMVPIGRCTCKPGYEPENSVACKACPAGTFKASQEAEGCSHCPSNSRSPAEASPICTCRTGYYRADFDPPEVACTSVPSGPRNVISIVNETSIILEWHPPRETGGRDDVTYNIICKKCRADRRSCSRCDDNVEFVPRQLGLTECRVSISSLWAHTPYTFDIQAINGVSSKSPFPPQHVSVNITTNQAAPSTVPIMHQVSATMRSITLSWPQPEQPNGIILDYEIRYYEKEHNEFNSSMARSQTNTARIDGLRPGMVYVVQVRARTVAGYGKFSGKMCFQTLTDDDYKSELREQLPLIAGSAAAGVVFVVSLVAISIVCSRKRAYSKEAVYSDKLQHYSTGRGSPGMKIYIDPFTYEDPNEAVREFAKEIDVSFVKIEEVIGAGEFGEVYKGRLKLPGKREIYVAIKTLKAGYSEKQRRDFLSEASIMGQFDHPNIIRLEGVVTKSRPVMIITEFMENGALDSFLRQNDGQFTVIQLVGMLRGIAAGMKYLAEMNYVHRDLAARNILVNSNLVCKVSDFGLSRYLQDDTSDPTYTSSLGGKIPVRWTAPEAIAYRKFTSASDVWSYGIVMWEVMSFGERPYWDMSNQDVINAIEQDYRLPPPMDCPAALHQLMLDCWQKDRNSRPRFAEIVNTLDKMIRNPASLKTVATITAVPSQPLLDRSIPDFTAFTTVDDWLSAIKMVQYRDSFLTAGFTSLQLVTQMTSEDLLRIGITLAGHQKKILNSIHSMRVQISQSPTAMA
structure (smiles),measurement,setting,value
COC[C@@H](C)Nc1cc(NC(=O)N2CCCc3cc(CN4CCCCOC4=O)c(C=O)nc32)ncc1C#N,IC50,[1],> 10 µM
same,IC50,[2],> 10 µM
same,IC50,SK-HEP1,> 10 µM
same,IC50,[3],> 10 µM
same,inhibition in vivo at 3 mg/kg,Hep 3B2 [4],69.8%
same,IC50,[5],> 10 µM
same,IC50,Focal adhesion kinase 1,> 10 µM
same,Activity,[6],Non-Toxic
same,IC50,Insulin receptor,> 10 µM
same,inhibition in vivo at 30 mg/kg,Hep 3B2 [7],165%
same,Activity,[8],Toxic
same,inhibition in vivo at 100 mg/kg,Huh-7 [9],70.8%
same,IC50,[10],> 10 µM
same,IC50,[11],> 10 µM
same,IC50,[12],> 10 µM
same,inhibition in vivo at 10 mg/kg,Huh-7 [13],28.1%
same,IC50,[14],> 10 µM
same,IC50,[15],> 10 µM
same,IC50,[16],> 10 µM
same,IC50,[17],> 10 µM
same,IC50,[18],> 10 µM
same,IC50,Ephrin type-A receptor 1,> 10 µM
same,IC50,[19],> 10 µM
same,IC50,Angiopoietin-1 receptor,> 10 µM
same,IC50,[20],> 10 µM
same,Activity,[21],Non-Toxic
same,NOAEL at 336 h,[22],2000 mg/kg/day
same,IC50,[23],> 10 µM
same,IC50,Ephrin type-B receptor 1,> 10 µM
same,NOAEL at 672 h,[24],450 mg/kg
same,IC50,[25],> 10 µM
same,IC50,[26],> 10 µM
same,IC50,[27],> 10 µM
same,inhibition in vivo at 10 mg/kg,Hep 3B2 [28],126%
same,Activity,[29],Non-Toxic
same,inhibition in vivo at 30 mg/kg,Huh-7 [30],62.7%
same,IC50,[31],> 10 µM
same,IC50,Hep 3B2 [32],0.0011 µM
same,IC50,[33],> 10 µM
same,IC50,Huh-7 [34],0.0025 µM
same,IC50,[35],> 10 µM
same,IC50,[36],> 10 µM
same,AUC,[37],9460 ng·h/mL
same,IC50,[38],> 10 µM
